Values of other authors in patent publication US7904011B2, “Temperature control unit and image forming apparatus including same” (Ricoh Company, Ltd., priority 2007, dated 2011).

Settings: in vivo

SMILES | acute oral toxicity LD50
CCOCCOC(=O)CCC(=O)OCCOCC [diethoxyethyl succinate] | 5000 mg/kg
CC1COC(=O)O1 (stereo not drawn) [propylene carbonate] | 29000 mg/kg
[Cl-].[Na+] [salt, reference compound] | 3000 mg/kg
